In one assay the test system is M14 melanoma cells. Nature of the assay: Cell viability by MTT, M14. It counts as cell-based, Human. The settings on record: for cell viability M14: 20 µM for 72 h, vs control; for IC50: Homo sapiens, M14, 72 h, MTT. As for the experimental part: (§1) The effect of compounds on cell viability was performed by measuring 3-[4,5-dimethylthiazol-2-yl]-2,5-diphenyltetrazolium bromide inner salt (MTT, Sigma-Aldrich) dye absorbance (solid tumor cells) or by quantization of ATP present in metabolically active cells using CellTiter-Glo® Luminescent (Promega, Fitchburg, Wisconsin, USA) (hematologic cells) following manifacturer's protocol. To evaluate the cell colony-forming ability, cell suspension from different samples was seeded into 60-mm Petri dishes. After 10 days, colonies were stained with 2% methylene blue in 95% ethanol and counted (1 colony > 50 cells). The surviving fractions were calculated as the ratio of absolute survival of the treated sample/survival of DMSO-treated control sample.
Figure 1 Cytotoxic screening of putative inhibitors of Bcl-2 anti-apoptotic proteins. (A) Flow cytometric quantification of propidium iodide exclusion assay in HL60 cells treated with the 49 putative Bcl-2 family inhibitors (50 μM, 72 h). (B) Analysis of cell viability by CellTiterGlo assay in HL60 cells treated for 24 h with concentrations ranging from 5 to 50 μM of the indicated compounds. (C-D) Analysis of cell viability by MTT assay in (C) M14 and (D) Sbcl2 melanoma cell lines treated for 72 h with concentrations ranging from 5 to 50 μM of the indicated compounds. (A-D) The results are reported as “viability of treated cells/viability of control cells (Ctrl)” × 100. Data are reported as mean of two (HL60) or three (M14 and Sbcl2) experiments ± SEM.
Figure 4 Analysis of the effect of IS20 and IS21 on cell viability, clonogenic ability and tumor sphere formation in cancer cells. (A) Analysis of cell viability by MTT assay in M14, H1299, HCT116 and MDA-MB-231 cell lines treated with IS20 or IS21 (20 μM for 72 h). The results are reported as “viability of treated cells/viability of control cells (Ctrl)” × 100. (B) Representative images and quantification of clonogenic ability evaluated in M14 and H1299 cells treated with IS20 or IS21 (20 μM for 72 h). Results are reported as percentage of clonogenicity of treated versus control cells. (C) Quantification of tumor sphere formation of M14 and H1299 cells treated with IS20 or IS21 (20 μM for 72 h). Results are reported as percentage of tumor sphere formation of treated versus control. (A-C) Data are reported as mean ± SD of three independent experiments. p-values were calculated between control (Ctrl) and treated cells, ** p < 0.001 and *** p < 0.0001.

A further assay relates to HCT116 cells. Nature of the assay: Western blot of PARP1 cleavage, HCT116. It counts as cell-based, Human. Conditions: 72 h. As for the experimental part:
(§2) Western blot analyses of total protein extracts were performed as previously described. Immunodetection was performed using antibodies directed to poly (ADP-ribose) polymerase (PARP; BD Biosciences San Diego, CA, USA), LC3B (Cell Signaling Technology, Danvers, MA), HSP72/73 (Calbiochem, EMD Biosciences, La Jolla, CA), Bcl-2 (SC-509, Santa Cruz Biotechnology Inc, Dallas, TX, USA), Bcl-xL (SC-271121, Santa Cruz Biotechnology Inc), Mcl-1 (SC-12756, Santa Cruz Biotechnology Inc) α-tubulin (Santa Cruz Biotechnology Inc) actin (Sigma-Aldrich, St. Louis, Missouri, USA). Anti-rabbit or anti-mouse immunoglobulin G-horseradish peroxidase-conjugated antibodies (Amersham Biosciences, Freiburg, Germany) were used as secondary antibody. Images were acquired by Image Lab Software (Bio-Rad, Hercules, CA, USA), using a ChemiDoc System instrument (Bio-Rad). […]
(§3) Figure 5 Analysis of apoptosis induction by IS20 and IS21 in leukemia, melanoma and NSCLC cells. […] (G) Flow cytometric quantification of cells in the subG1 peak of cell cycle distribution by propidium iodide staining in HL60 cell line treated with IS20 or IS21 (20 μM for 24 h) and in M14, H1299 and MDA-MB-231 cell lines treated with IS20 or IS21 (20 μM for 72 h). Data are reported as mean ± SD of three independent experiments. p-values were calculated between control (Ctrl) and treated cells, * p < 0.05. […]
On the technique in general: Immunoblotting shows a protein as a band on a membrane.

In the next assay the test system is U937 cells. Description: Western blot of PARP1 cleavage, U937. It counts as cell-based, Human. Conditions: 20 µM for 24 h. As to the method:
as §2, §3

Assay [1] concerns HCT116 colon cancer cells. Description: Cell viability by MTT, HCT116. The class given is cell-based, Human. Conditions: 20 µM for 72 h, vs control. As to the method: as §1
Figure 4 Analysis of the effect of IS20 and IS21 on cell viability, clonogenic ability and tumor sphere formation in cancer cells. […] (B) Representative images and quantification of clonogenic ability evaluated in M14 and H1299 cells treated with IS20 or IS21 (20 μM for 72 h). […] (C) Quantification of tumor sphere formation of M14 and H1299 cells treated with IS20 or IS21 (20 μM for 72 h). […] (A-C) Data are reported as mean ± SD of three independent experiments. p-values were calculated between control (Ctrl) and treated cells, ** p < 0.001 and *** p < 0.0001.

A further assay relates to H1299 cells. Nature of the assay: Western blot of LC3B-I/LC3B-II (autophagy), H1299. It counts as cell-based, Human. The settings on record: 72 h, increasing concentration. As to the method: as §2, with “antibody.” for “antibody. Images were acquired by Image Lab Software (Bio-Rad, Hercules, CA, USA), using a ChemiDoc System instrument (Bio-Rad).”
Figure 6 Analysis of autophagosome accumulation in M14 and H1299 cells after treatment with IS20 or IS21. […] Ratio of LC3B-II on LC3B-I levels, after normalization on HSP72/73, Actin or α-Tubulin, is quantified by densitometric analysis. (D) (Upper panels) Representative images and (lower panels) relative quantification of fluorescence microscopic analysis of LC3B puncta positive cells in M14 EGFP-LC3B and H1299 EGFP-LC3B transfected cells, treated with IS20 or IS21 (20 µM for 72h). […] Cells with more than 10 puncta were considered autophagy-positive. p-values were calculated between untreated (Ctrl) and treated cells, * p < 0.05.

Assay [2] concerns HL60 cells. Nature of the assay: Western blot of PARP1 cleavage, HL60. The class given is cell-based, Human. The settings on record: 20 µM for 24 h. As to the method: as §2, §3
In assay [3] the test system is HL60 cells. Description: Cell viability by CellTiterGlo, HL60. It counts as cell-based. The settings on record: Homo sapiens, HL-60; 24 h, 5 to 50 µM. As for the experimental part:
as §1
Figure 1 Cytotoxic screening of putative inhibitors of Bcl-2 anti-apoptotic proteins. (A) Flow cytometric quantification of propidium iodide exclusion assay in HL60 cells treated with the 49 putative Bcl-2 family inhibitors (50 μM, 72 h). (B) Analysis of cell viability by CellTiterGlo assay in HL60 cells treated for 24 h with concentrations ranging from 5 to 50 μM of the indicated compounds. (C-D) Analysis of cell viability by MTT assay in (C) M14 and (D) Sbcl2 melanoma cell lines treated for 72 h with concentrations ranging from 5 to 50 μM of the indicated compounds. […]
Background: In ATP-based viability assays light output follows the ATP content of the culture.

Consider `CCCCCOc1ccc(C2/C(=C(\O)c3ccc4c(c3)CC(C)O4)C(=O)C(=O)N2c2nnc(SCc3ccc(Cl)cc3)s2)cc1OCC` (stereo not shown) [IS21], for which, in the assay on M14 melanoma cells, the “cell viability M14” value is “significant inhibition”. The IC50 (usually the point on the concentration scale where inhibition reaches its midpoint) in the assay on M14 melanoma cells was 16.7 µM; with HL60 cells [3], 10.9 to 34 µM. The “PARP1 cleavage, HCT116” value in the assay with HCT116 cells was “not evident”. Further, in the assay with U937 cells, the “PARP1 cleavage, U937” value is “cleavage of PARP1”. Moreover, the “cell viability HCT116” value in assay [1] is “not significantly perturbed”. Besides, the “ratio of LC3B-II on LC3B-I protein levels, H1299” value in the assay on H1299 cells is listed as “higher level”. In the assay with HL60 cells [2], the “PARP1 cleavage, HL60” value is “cleavage of PARP1”.

On to `CCCCOc1ccc(C2/C(=C(\O)c3ccc4c(c3)CC(C)O4)C(=O)C(=O)N2c2nnc(SCc3ccc(Cl)cc3)s2)cc1OCC` (stereo not shown) [IS20], for which, in the assay on M14 melanoma cells, the “cell viability M14” value is “significant inhibition” and the midpoint of inhibition, the IC50, lay at 19.8 µM. Also, the “PARP1 cleavage, HCT116” value in the assay on HCT116 cells is recorded as “not evident”. In addition, the “PARP1 cleavage, U937” value with U937 cells is on record as “cleavage of PARP1”. For the same molecule, in assay [1], the “cell viability HCT116” value is “not significantly perturbed”. Further, in the assay on H1299 cells, the “ratio of LC3B-II on LC3B-I protein levels, H1299” value is “higher level”. The “PARP1 cleavage, HL60” value with HL60 cells [2] is reported as “cleavage of PARP1”. In the assay with HL60 cells [3], this molecule came in with an IC50 of 10.9 to 34 µM.

Values taken from publication PMC8899577, “Targeting the anti-apoptotic Bcl-2 family proteins: machine learning virtual screening and biological evaluation of new small molecules” (Theranostics, 2022).
